US5952511A, “Indolin-2-one derivatives” (Chugai Seiyaku Kabushiki Kaisha, priority 1993, dated 1999)

Legend:
[1] = molecular target: T1, gastrin receptors (guinea pig gastric glands) (Cavia porcellus, UniProt H0VZC5); test: Gastrin Receptor Binding Test in Guinea Pig Gastric Glands (Test Example 1); design: species or system guinea pig (Hartley, male); details: inhibition of specific 125I-gastrin I human binding (22.5 pM), 25° C., 45 min
T1 construct: The gastric glands were isolated from the tissue with a pipette; from tissue; host or cells: isolated gastric glands from gastric mucosa of Hartley male guinea pigs
T1 sequence (H0VZC5 1-426): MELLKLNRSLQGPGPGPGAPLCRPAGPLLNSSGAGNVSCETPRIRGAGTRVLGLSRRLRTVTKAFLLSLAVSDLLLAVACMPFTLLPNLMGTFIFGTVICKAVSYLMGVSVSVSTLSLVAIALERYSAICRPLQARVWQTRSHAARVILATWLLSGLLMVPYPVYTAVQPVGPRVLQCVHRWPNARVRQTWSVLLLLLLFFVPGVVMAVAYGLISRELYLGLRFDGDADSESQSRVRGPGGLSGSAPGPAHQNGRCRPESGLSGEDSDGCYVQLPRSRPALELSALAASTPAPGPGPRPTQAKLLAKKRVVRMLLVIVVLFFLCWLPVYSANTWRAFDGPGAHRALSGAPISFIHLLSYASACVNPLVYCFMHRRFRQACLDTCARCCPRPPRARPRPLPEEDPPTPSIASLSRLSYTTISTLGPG
Method: Gastrin Receptor Binding Test in Guinea Pig Gastric Glands
Preparation of Gastric Glands:
Guinea pig gastric glands were prepared according to the method of Chang, et al., Biochem. Biophys. Res. Commun., 134, 895 (1986). The gastric mucosa of a Hartley male guinea pig was peeled off. After washing, the mucosa was minced with scissors in buffer A (Eagle's MEM containing 2 mM L-glutamine and 25 mM HEPES; pH 7.4). After washing, the minced tissue was incubated in buffer A containing 0.025% collagenase, 0.01% soy bean trypsin inhibitor, and 0.1% BSA at 37° C. for 60 minutes under 95% O2 and 5% CO2. The gastric glands were isolated from the tissue with a pipette, washed twice with buffer A, and filtered through a mesh. Then, the gastric glands were obtained by centrifugation.
Guinea pig gastric glands were resuspended in buffer B (Hank's solution containing 10 mM HEPES and 0.2% BSA; pH 7.4) (10 ml of buffer B per guinea pig).
To 200 μl of the suspension containing the resuspended isolated gastric glands were added 20 μl of ^125 I-gastrin I human (final concentration: 22.5 pM). Then, 10 μl of a test compound or a solvent (for total binding) or 10 μM Pentagastrin (for nonspecific binding), and buffer B was added there to make a total volume of 1 ml. The reaction mixture was incubated at 25° C. for 45 minutes and then centrifuged at 12000 g. The supernatant was removed by suction, and the radioactivity of the isolated gastric glands was measured with a gamma-counter.
The specific binding of gastrin to gastrin receptors was obtained from a difference between the total binding and the nonspecific binding. The IC50 of the test compound in inhibition of specific binding was calculated.

gastric acid secretion [2] = test: Inhibitory Activity on Gastric Acid Secretion in Pylorus Ligated Rats (Test Example 2); type: in vivo, rat (Sprague-Dawley, male); details: Rattus norvegicus, intraduodenal, 10 mg/kg, i.d., 4 h
Method: Inhibitory Activity on Gastric Acid Secretion in Pyrolus Ligated Rats
Sprague-Dawley male rats weighing about 200 g were deprived of food for 24 hours while allowed water ad libitum. The abdomen was opened under anesthesia with ethyl ether, the pyrolus ligated, and the abdomen closed. The rats were deprived of food and water for 4 hours until they were surcrified with ethyl ether. The stomach was removed, and gastric juice was collected and measured. The gastric juice was centrifuged at 3000 rpm, and the supernatant was titrated up to pH 7.0 with 0.1N NaOH solution to obtain the acidity of the gastric juice. The amount of the gastric acid output was calculated by multiplying the gastric juice volume by the acidity, and the percent inhibition of acid secretion was obtained according to the following equation. A test compound, suspended in a 3% gum arabic solution, was administered intraduodenally at a dose of 2 ml/kg immediately after the pyrolus ligation.
Inhibition (%)=[(Average amount of gastric acid output in control group--Average amount of gastric acid output in test group)/Average amount of gastric acid secreted […]]×100

[3] = molecular target: T2, CCK-B receptors (rat cerebral cortex) (Rattus norvegicus, UniProt P30553); test: CCK-B Receptor Binding Test in Rat Cerebral Cortex (Test Example 3); design: species or system rat (Sprague-Dawley, male); details: inhibition of specific 125I-CCK-8 sulfated binding (15 pM), 25° C., 120 min
T2 construct: Cerebral cortex was minced in the same buffer, and homogenized with Polytron; from tissue; host or cells: cerebral cortex membrane fraction of Sprague-Dawley male rats
T2 sequence (P30553 1-452): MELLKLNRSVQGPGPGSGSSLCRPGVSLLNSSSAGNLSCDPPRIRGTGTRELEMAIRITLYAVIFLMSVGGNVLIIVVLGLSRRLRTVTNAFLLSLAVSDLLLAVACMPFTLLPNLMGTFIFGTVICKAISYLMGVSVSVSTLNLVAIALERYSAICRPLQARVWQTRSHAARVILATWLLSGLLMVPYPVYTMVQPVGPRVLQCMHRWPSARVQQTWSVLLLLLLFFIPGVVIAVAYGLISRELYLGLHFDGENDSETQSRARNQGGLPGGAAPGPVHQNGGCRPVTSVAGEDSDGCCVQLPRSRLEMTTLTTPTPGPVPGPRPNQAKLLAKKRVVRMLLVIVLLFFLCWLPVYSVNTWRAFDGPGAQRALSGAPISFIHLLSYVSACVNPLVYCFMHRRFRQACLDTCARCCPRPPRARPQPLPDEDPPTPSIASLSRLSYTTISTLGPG
Method: CCK-B Receptor Binding Test in Rat Cerebral Cortex
A rat cortical membrane fraction was prepared in accordance with the method of Chang, et al., Proc. Natl. Acad. Sci., U.S.A., 83, 4923 (1986). Sprague-Dawley male rats were sucrified and the brains were removed and immersed in a 50 mM Tris-HCl buffer (pH 7.4) under ice-cooling, and the cortex was dissected. Cerebral cortex was minced in the same buffer, and homogenized with Polytron. The homogenate was centrifuged at 2,500 g, and the supernatant was further centrifuged at 50,000 g. The pellet was resuspended in a reaction buffer solution (10 mM HEPES, 5 mM MgCl2, 1 mM EGTA, 130 mM NaCl; pH 6.5).
To 150 μl of the resulting rat cerebral cortex suspension were added 20 μl of ^125 I-CCK-8 sulfated (final concentration: 15 pM) and 10 μl of a test compound or a solvent (for total binding) or 1 μM CCK-8 sulfated (for nonspecific binding), and the reaction buffer solution was added there to make 1 ml. The reaction mixture was incubated at 25° C. for 120 minutes, followed by filtration through a GF/B filter (produced by Whatman). The radio-activity of the membrane fraction adsorbed onto the filter was measured with a gamma-counter.
The specific binding to CCK-B receptors was obtained from a difference between the total binding and the nonspecific binding. The IC50 of the test compound in inhibition of specific binding was calculated.

CCK-B receptors = details: in words; cited from earlier work
gastrin receptors = details: in words; cited from earlier work
gastric acid secretion [4] = details: in words; cited from earlier work

| Compound | IC50 [1] [nM] | inhibition in vivo at 10 mg/kg (gastric acid secretion [2]) [%] | IC50 [3] [nM] | binding activity to CCK-B receptors (CCK-B receptors) | binding activity to gastrin receptors (gastrin receptors) | inhibitory activity on gastric acid secretion when administered in vivo (gastric acid secretion [4]) |
| --- | --- | --- | --- | --- | --- | --- |
| CCOC(CN1C(=O)C(CC(=O)Nc2ccc(N(C)C)cc2)(NC(=O)Nc2ccc(C)cc2)c2ccccc21)OCC (single isomer, unassigned; (+)) [Example 180, (+)-1-(2,2-Diethoxyethyl)-3-((4-(N,N-dimethylamino)phenyl)aminocarbonylmethyl)-3-(N'-(4-methylphenyl)ureido)indolin-2-one] | 4.6 | 73 | 0.36 |  |  |  |
| CCOC(CN1C(=O)C(CC(=O)Nc2ccc(N(C)C)cc2)(NC(=O)Nc2ccc(C)cc2)c2ccccc21)OCC (racemic) [Example 130, (RS)-1-(2,2-Diethoxyethyl)-3-((4-(N,N-dimethylamino)phenyl)aminocarbonylmethyl)-3-(N'-(4-methylphenyl)ureido)indolin-2-one] | 4.9 | 71 | 2.3 |  |  |  |
| CCOC(CN1C(=O)C(CC(=O)Nc2ccc(Cl)cc2)(NC(=O)Nc2ccc(C)cc2)c2ccccc21)OCC (racemic) [Example 114, (RS)-3-((4-Chlorophenyl)aminocarbonylmethyl)-1-(2,2-diethoxyethyl)-3-(N'-(4-methylphenyl)ureido)indolin-2-one] | 2.4 | 56 | 0.64 |  |  |  |
| CCOC(CN1C(=O)C(CC(=O)Nc2ccc(OC)nc2)(NC(=O)Nc2ccc(C)cc2)c2ccccc21)OCC (single isomer, unassigned; (+)) [Example 181, (+)-1-(2,2-Diethoxyethyl)-3-((2-methoxypyrido-5-yl)aminocarbonylmethyl)-3-(N'-(4-methylphenyl)ureido)indolin-2-one] | 2.2 | 69 | 0.78 |  |  |  |
| CCCN(CCC)C(=O)C(CCC(=O)O)NC(=O)c1ccccc1 (stereo not shown) [Proglumide] |  |  |  | very weak | very weak |  |
| CCOC(CN1C(=O)C(CC(=O)Nc2ccc(C)cn2)(NC(=O)Nc2ccc(C)cc2)c2ccccc21)OCC (racemic) [Example 138, (RS)-1-(2,2-Diethoxyethyl)-3-(N'-(4-methylphenyl)ureido)-3-((5-methylpyrido-2-yl)aminocarbonylmethyl)indolin-2-one] | 2.2 | 69 | 0.5 |  |  |  |
| CCOC(CN1C(=O)C(CC(=O)Nc2ccc(N(C)C)cc2)(NC(=O)Nc2cccc(OC)c2)c2ccccc21)OCC (single isomer, unassigned; (+)) [Example 191] | 5.5 | 78 | 0.45 |  |  |  |
| CCOC(CN1C(=O)C(CC(=O)Nc2ccc(C)cc2)(NC(=O)Nc2ccc(C)cc2)c2ccccc21)OCC (racemic) [Example 71, (RS)-1-(2,2-Diethoxyethyl)-3-((4-methylphenyl)aminocarbonylmethyl)-3-(N'-(4-methylphenyl)ureido)indolin-2-one] | 1.1 | 48 | 1.2 |  |  |  |
| Cc1cccc(NC(=O)N[C@@H]2N=C(c3ccccc3)c3ccccc3N(C)C2=O)c1 [L-365,260] |  |  |  |  | high binding activity to gastrin receptors | do not exert powerful inhibitory activity on gastric acid secretion |
